Tests used:
H3R = molecular target: T1, H3R (Rattus norvegicus, UniProt Q9QYN8); assay: Histamine H3R functional inverse agonist assay with OPCs (cAMP assay); format: cell-based; conditions: 30 nM to 3 µM compound, Forskolin 3 µM, absence of H3R agonist
T1 construct: endogenous in cells; host or cells: oligodendrocyte precursor cells (OPCs), untransfected
Description: Histamine receptor 3 (H3R), expressed on cell surface, is negatively coupled to adenylyl cyclase, which stimulates the formation of cyclic AMP (cAMP). In the absence of histamine, the constitutively active H3R would inhibit intracellular level of cAMP. Inverse agonists of H3R, which block constitutive activity of H3R, thus would raise the cAMP level. The ability of Example compound 2 to inhibit constitutive activity of H3R was determined in a cellular cAMP assay.
For each compound being assayed, OPCs were seeded in PO coated 96-well plate at a density of 20000 cells/well, and cultured in BDM with bFGF (10 ng/ml Petrotech) and PDGF (10 ng/ml Petrotech) for 24 hours. The cells were first treated with different concentration of example compound (30 nM to […]) for 30 minutes. Then the cells were stimulated with Forskolin ([…], Sigma) in the presence of the example compound for 15 minutes. The cAMP concentrations were measured by the cAMP Chemiluminescent Immunoassay Kit (Invitrogen, Cat. No. C10557). The cells were lysed with lysis buffer (60 μL, Invitrogen Kit reagent) at 37° C. for 30 minutes. […] Chemiluminescence signal was measured in a SpectraMax M5 Multi-Mode Microplate Readers (Molecular Devices) for 1 second per well.

[1] = test system: remyelination in cuprizone/rapamycin-induced demyelination; assay: Mouse cuprizone/rapamycin-induced demyelination model (Black-gold II staining); format: in vivo, C57BL/6 mice; conditions: 30 mg/kg orally b.i.d. 9 days, n=7, P<0.05
Description: The ability of Example compound 2 to enhance in vivo remyelination was determined with the mouse cuprizone/rapamycin-induced demyelination model.
The cuprizone plus rapamycin model was conducted with the protocol as follows: rapamycin was dissolved in 100% ethanol and stored at −20° C. until use. Immediately before injection, the rapamycin was diluted in vehicle solution to get a final concentration in 5% PEG-400, 5% Tween 80, and 4% ethanol. The C57BL/6 mice at age of 8 weeks were fed with powder mouse food mixed freshly with 0.2% cuprizone (w/w) and received daily intraperitoneal injection of rapamycin (10 mg/kg body weight) for 5 weeks to induce demyelination, then animals were allowed to recover (removal of cuprizone from the diet and rapamycin injection) and administrated with Example compound 2, at 30 mg/kg body weight orally, b.i.d. for an additional 9 days prior to sacrifice. The brain samples were collected for pathologic analysis. […]
Mice were deeply anesthetized and quickly perfused with 0.9% saline via the left cardiac ventricle to drain out blood. […] The sections were monitored to determine the extent of staining. […]
Image-Pro 6.3 software (Media Cybernetics, USA) was used for subsequent quantitative evaluation. […] For measurement of mean density, areas and IOD in central corpus callosum or cortex were calculated after all digital images were set under the same colour range. […]

T1 sequence (Q9QYN8 whole entry): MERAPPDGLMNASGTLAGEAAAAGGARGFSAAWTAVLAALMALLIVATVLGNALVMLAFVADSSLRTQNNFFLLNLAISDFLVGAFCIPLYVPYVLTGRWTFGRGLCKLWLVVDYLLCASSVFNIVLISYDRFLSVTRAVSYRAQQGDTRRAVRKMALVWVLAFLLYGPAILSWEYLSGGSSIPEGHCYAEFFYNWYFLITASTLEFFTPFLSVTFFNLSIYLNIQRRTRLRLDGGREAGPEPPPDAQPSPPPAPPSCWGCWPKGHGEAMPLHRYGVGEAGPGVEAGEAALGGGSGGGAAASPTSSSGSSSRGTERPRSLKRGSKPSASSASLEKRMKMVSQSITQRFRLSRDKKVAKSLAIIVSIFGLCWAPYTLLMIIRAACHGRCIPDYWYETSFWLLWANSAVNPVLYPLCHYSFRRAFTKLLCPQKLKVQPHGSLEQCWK

- Forskolin-stimulated cAMP level in primary OPCs (H3R): increased
Compound: c1cc2c(cc1-c1noc(CC3CCN(C4CCC4)CC3)n1)OCO2 [Example compound 2, 3-(benzo[d][1,3]dioxol-5-yl)-5-((1-cyclobutylpiperidin-4-yl)methyl)-1,2,4-oxadiazole]
- mean intensity of Black-gold II staining, forebrain corpus callosum ([1]; vehicle 14.65%): 27.68±5.44%
- mean intensity of Black-gold II staining, forebrain cortex ([1]; vehicle 40.79%): 60.05±6.28%

From patent publication US20150080380A1, “Therapeutic Uses” (GLAXOSMITHKLINE INTELLECTUAL PROPERTY DEVELOPMENT LIMITED, priority 2012, published 2015)
